Values after ≈ are worked out from the molar mass of the structure shown.
Key:
[1] = tested on: gram-positive and gram-negative bacteria; conditions: background statement; cited from earlier work
[2] = tested on: Pseudomonas; conditions: background statement; cited from earlier work
[3] = tested on: Pseudomonas aeruginosa 104; assay: Minimal inhibitory concentration, agar dilution method; assay type: cell-based
Excerpt: (§1) When determined according to the agar dilution method, the penicillins (I) afford the minimal inhibitory concentrations against test microorganisms as shown in Table 2.

[4] = tested on: Proteus miravilis GN2425; assay: as above; assay type: cell-based
[5] = tested on: Proteus vulgaris HV19; assay: as above; assay type: cell-based
[6] = tested on: Staphylococcus aureus 209P; assay: as above; assay type: cell-based
Excerpt: as §1

[7] = tested on: Escherichia coli NIHJ; assay: as above; assay type: cell-based
Excerpt: as §1

[8] = tested on: Klebsiella pneumoniae PCI602; assay: as above; assay type: cell-based
Excerpt: as §1

| MIC [3] | MIC [4] | MIC [5] | MIC [6] | MIC [7] | MIC [8] | Compound | inhibition of the growth of gram-positive and gram-negative bacteria [1] | antimicrobial activity against Pseudomonas [2] |
| --- | --- | --- | --- | --- | --- | --- | --- | --- |
| – | – | – | – | – | – | 6(α-amino-thienylacetamido)penicillanic acid | inhibit the growth of various gram-positive and gram-negative bacteria | do not exert any appreciable antimicrobial activity against Pseudomonas |
| – | – | – | – | – | – | 6-(α-amino-isothiazolylacetamido)penicillanic acid | inhibit the growth of various gram-positive and gram-negative bacteria | do not exert any appreciable antimicrobial activity against Pseudomonas |
| – | – | – | – | – | – | CC1(C)S[C@@H]2C(NC(=O)C(N)c3ccc(O)cc3)C(=O)N2[C@H]1C(=O)O (stereo partly drawn) [Amoxycillin, 6-(α-amino-p-hydroxyphenylacetamido)penicillanic acid] | inhibit the growth of various gram-positive and gram-negative bacteria | do not exert any appreciable antimicrobial activity against Pseudomonas |
| – | – | – | – | – | – | CC1(C)S[C@@H]2[C@H](NC(=O)C3(N)CCCCC3)C(=O)N2[C@H]1C(=O)O [Cyclacillin, 6-(1-amino-cyclohexanecarboxamide)penicillanic acid] | inhibit the growth of various gram-positive and gram-negative bacteria | do not exert any appreciable antimicrobial activity against Pseudomonas |
| – | – | – | – | – | – | CC1(C)S[C@@H]2[C@H](NC(=O)[C@H](N)C3=CCC=CC3)C(=O)N2[C@H]1C(=O)O [Epicillin] | inhibit the growth of various gram-positive and gram-negative bacteria | do not exert any appreciable antimicrobial activity against Pseudomonas |
| 1.56 µg/mL (≈ 2.83 µM) | 1.56 µg/mL (≈ 2.83 µM) | 0.05 µg/mL (≈ 0.0906 µM) | 0.78 µg/mL (≈ 1.41 µM) | 0.78 µg/mL (≈ 1.41 µM) | 6.25 µg/mL (≈ 11.3 µM) | Cc1cc(C(NC(=O)c2cnc3cccnc3c2O)C(=O)NC2C(=O)N3C2SC(C)(C)C3C(=O)O)ccc1O (stereo not shown) [Example 60] | – | – |
| 1.56 µg/mL (≈ 2.82 µM) | 1.56 µg/mL (≈ 2.82 µM) | 0.025 µg/mL (≈ 0.0452 µM) | 0.78 µg/mL (≈ 1.41 µM) | 0.78 µg/mL (≈ 1.41 µM) | 12.5 µg/mL (≈ 22.6 µM) | CC1(C)SC2C(NC(=O)C(NC(=O)c3cnc4cccnc4c3O)c3ccc(O)c(O)c3)C(=O)N2C1C(=O)O (stereo not shown) [Example 61] | – | – |
| 1.56 µg/mL (≈ 2.68 µM) | 3.13 µg/mL (≈ 5.37 µM) | 0.05 µg/mL (≈ 0.0858 µM) | 1.56 µg/mL (≈ 2.68 µM) | 1.56 µg/mL (≈ 2.68 µM) | 12.5 µg/mL (≈ 21.5 µM) | CC1(C)SC2C(NC(=O)C(NC(=O)c3cnc4cccnc4c3O)c3ccc(O)c([N+](=O)[O-])c3)C(=O)N2C1C(=O)O (stereo not shown) [Example 62] | – | – |
| 1.56 µg/mL (≈ 2.82 µM) | 1.56 µg/mL (≈ 2.82 µM) | 0.025 µg/mL (≈ 0.0452 µM) | 0.78 µg/mL (≈ 1.41 µM) | 0.78 µg/mL (≈ 1.41 µM) | 6.25 µg/mL (≈ 11.3 µM) | CC1(C)SC2C(NC(=O)C(NC(=O)c3cnc4cccnc4c3O)c3ccc(O)c(N)c3)C(=O)N2C1C(=O)O (stereo not shown) [Example 63] | – | – |
| 1.56 µg/mL (≈ 2.75 µM) | 3.13 µg/mL (≈ 5.51 µM) | 0.05 µg/mL (≈ 0.0881 µM) | 1.56 µg/mL (≈ 2.75 µM) | 3.13 µg/mL (≈ 5.51 µM) | 12.5 µg/mL (≈ 22 µM) | COc1cc(C(NC(=O)c2cnc3cccnc3c2O)C(=O)NC2C(=O)N3C2SC(C)(C)C3C(=O)O)ccc1O (stereo not shown) [Example 64] | – | – |

| Compound | MIC [3] | MIC [4] | MIC [5] | MIC [6] | MIC [7] | MIC [8] | inhibition of the growth of gram-positive and gram-negative bacteria [1] | antimicrobial activity against Pseudomonas [2] |
| --- | --- | --- | --- | --- | --- | --- | --- | --- |
| CC1(C)S[C@@H]2C(NC(=O)C(N)c3ccccc3)C(=O)N2[C@H]1C(=O)O (stereo partly drawn) [Ampicillin, 6-(α-amino-phenylacetamido)penicillanic acid] | > 500 µg/mL | – | – | – | – | – | inhibit the growth of various gram-positive and gram-negative bacteria | do not exert any appreciable antimicrobial activity against Pseudomonas |
